Data set [1] relates to adult male Wistar rats. In words: Cue-induced reinstatement of extinguished cocaine seeking. The class given is in vivo, rat. Conditions: for reinstatement of extinguished cocaine seeking: pretreatment, summary of the studies. From the text: Training to self-administer cocaine: In one model, rats were exposed to alternating 15-minute periods of access to cocaine self-administration and food reinforcement. Food was used to control for potential nonspecific, ataxis effects of the drugs and combinations. […] The other preclinical model that has been used is the cue-induced reinstatement of extinguished cocaine seeking model of relapse. In this model, rats are trained to self-administer cocaine and the ability of conditioned cues in the environment to reinstate extinguished responding is assessed and taken as a measure of relapse.
Cue-induced Reinstatement of Extinguished Cocaine Seeking: The experiments described herein were designed to investigate whether or not drug combinations identified as effective in reducing cocaine self-administration would also block the ability of conditioned cues to reinstate extinguished cocaine-seeking behavior. Adult male Wistar rats were implanted with chronic jugular catheters and trained to self-administer cocaine (0.25 mg/kg/infusion) by pressing one of the response levers in the experimental chamber (i.e., the “active” or “cocaine” lever) under a fixed-ratio […] schedule of reinforcement during daily 2-hour sessions conducted 5 days per week. At the start of each session, both levers were extended into the chamber and the stimulus light above the active lever was illuminated to indicate the availability of cocaine. […] A 20-second timeout period followed each infusion. The stimulus light above the active lever and the house light and tone compound stimulus were extinguished during the timeout period, and the light above the active lever was illuminated once the timeout ended. When responding on the active lever varied less than 20% for two consecutive days, the response requirement was increased to FR2. When similar stability was observed under the FR2 schedule or reinforcement, the response requirement was increased to the final ratio of four. The criteria for stable responding under the FR4 schedule of reinforcement was a minimum of 10 days of exposure to this schedule that concluded with at least three consecutive days when responding varied by less than 10%. […] Once stable cocaine self-administration was observed, rats were exposed to extinction; the rats were placed into the behavioral chambers, but responding on the “cocaine” (active) lever produced no programmed consequences. Extinction training continued until responding decreased to less than 20% of baseline self-administration. Then reinstatement testing commended. The rats were placed into the experimental chambers, both response levers were extended into the chamber, and the stimulus light above the “active” lever was illuminated as during self-administration training. […] Responding on the “active” lever during reinstatement testing was taken as, an index of cocaine-seeking behavior. Each experimental group consisted of […].

Data set [2] concerns adult male Wistar rats. In words: Intravenous cocaine self-administration under a multiple, alternating schedule of food reinforcement and cocaine self-administration. Format: in vivo, rat.
Protocol: Adult male Wistar rats were trained under a multiple, alternating schedule of cocaine and food self-administration. This schedule consisted of alternating periods of cocaine access and food reinforcement. In some instances, as described further below, three doses of cocaine (0.125, 0.25, or 0.50 mg/kg/infusion) were tested. Rats were also periodically trained with saline substitution (cocaine extinction) and food extinction during the same session.
More specifically, adult male Wistar rats were implanted with chronic jugular catheters. Following recovery from surgery, the rats were trained to respond under a multiple, alternating schedule of food reinforcement and cocaine self-administration. Food-maintained responding was used to control for the non-specific motor effects of the various treatments. During the food component of the schedule, the stimulus light located above the food response lever was illuminated to indicate the availability of food reinforcement. […] A 25-second timeout followed the delivery of each food pellet. During this timeout, the stimulus light was darkened and responses on the food lever were counted but had no scheduled consequences. Responding on the other (cocaine) lever during the food component also had no scheduled consequences. […] Following 15 minutes of access to food, all stimulus lights in the chamber were darkened for a 1-minute timeout. Following the timeout, the stimulus light above the cocaine response lever was illuminated to indicate the availability of cocaine (0.125, 0.25, or 0.5 mg/kg/infusion). […] A 20-second timeout period followed each infusion. […] After 15 minutes of access to cocaine and a 1-minute timeout, the rats were again allowed 15 minutes access to the food component of the schedule. Access to food and cocaine alternated in this manner every 15 minutes during the two hour behavioral sessions so that each rat was exposed to food and cocaine for four 15-minute periods each. Each behavioral session began with 15 minutes access to either food or cocaine, and this alternated daily. Stable baselines of responding were established when the total number of cocaine and food presentations, as well as the number of presentations during each of the four exposures each session, varied less than 10% for three consecutive sessions. At least three different doses of cocaine (e.g., 0.125, 0.25, and 0.5 mg/kg/infusion) were tested. Rats were first trained to self-administer 0.25 mg/kg/infusion, which was the standard dose of cocaine used. When responding stabilized, the dose was changed to 0.125 or 0.5 mg/kg/infusion as appropriate.
Once stable baselines of responding were obtained, dose-response curves for the various compounds were individually generated for each rat. Rats were treated with each dose at least twice with a minimum of two days of baseline cocaine self-administration interspersed between each test. Each group of rats was tested with only two of the test compounds to minimize potential carryover effects.
For another data set, the system named is rats. As to conditions: pretreatment, literature; cited from earlier work.
For a further data set, the system named is smokers. Conditions: smoking cessation therapy; cited from earlier work.
The nature of data set [3]: Pharmacokinetic interaction between cocaine, metyrapone and oxazepam (plasma concentrations, GCMS). The class given is in vivo, rat.
Protocol: Thirty minutes following the drug combination or vehicle injection, the rats received intravenous injections of cocaine (0.25 mg/kg/infusion) every 2 minutes for 1 hour. After the final injection of cocaine, blood was collected from the catheter for the analysis of cocaine and its metabolites ecgonine methyl ester and benzoylecgonine. […] All drug concentrations were determined using GCMS procedures.
Data set [4] can be described thus: Phase I single- and multiple-rising dose study: plasma pharmacokinetics. The arrangement: species or system human. As to conditions: in vivo; for change of half-lives at different doses or with repeated dosing / Tmax / half-life: human; for half-life: t1/2. From the text: Total daily doses were double these amounts on BID dosing days. Primary outcomes were safety and pharmacokinetics of MET, its active metabolite (metyrapol), and OX. Safety measures included vital signs, ECGs an standard safety labs. Cortisol and other HPA axis parameters were monitored closely throughout the study.
They were not seeking to quit smoking. […] Primary outcomes were safety and pharmacokinetics.

Another data set has as its system male Wistar rats. The experiment in a line: Forced Swim Test (FST), animal model of depression.
The mark [5] stands for this setting: high dose, ip pretreatment, drug alone.
[6] abbreviates: low, ineffective dose, ip pretreatment, drug alone.
[7] abbreviates: pretreatment, summary of the studies.

“Also recorded” adds a separate entry of the source. Where two headings read alike, the source gives them in different places.

On to `Cc1nnc2n1-c1ccc(Cl)cc1C(c1ccccc1)=NC2` [alprazolam], for which the “reinstatement of extinguished cocaine seeking” value in the data set on adult male Wistar rats [1] is given as “decrease”. The cocaine self-administration entry with adult male Wistar rats [2] (setting [5]) was “reduced cocaine self-administration”; in the data set with adult male Wistar rats [2] (setting [6]) it was “did not significantly affect”; in the data set on adult male Wistar rats [2] (setting [7]), “decrease cocaine self-administration”; with rats it was “reduced responding maintained by both food and cocaine”.

For `CC(=O)N1CCN(c2ccc(OCC3COC(Cn4ccnc4)(c4ccc(Cl)cc4Cl)O3)cc2)CC1` (centres unmarked) [ketoconazole], the “reinstatement of extinguished cocaine seeking” value in the data set on adult male Wistar rats [1] is given as “decrease”. The cocaine self-administration entry is given as “no effect; also recorded: did not significantly affect” with adult male Wistar rats [2] (setting [6]), “decrease cocaine self-administration” with adult male Wistar rats [2] (setting [7]) and “reduced cocaine self-administration” with rats. Further, the “minimally effective dose that reduced cocaine self-administration by at least 50% without affecting food-maintained responding” value with adult male Wistar rats [2] (rats) came to 25 mg/kg.

`CC(NC(C)(C)C)C(=O)c1cccc(Cl)c1` (centres unmarked) [bupropion]: the “one year quit rate” value in the data set on smokers is recorded as 15.5%.

Take `CCCCN(CC)c1nc(C)nc2c1c(C)cn2-c1c(C)cc(C)cc1C` [CP-154,526]: the “reinstatement of extinguished cocaine seeking” value in the data set on adult male Wistar rats [1] is given as “decrease”. The values for the cocaine self-administration entry in the data set with adult male Wistar rats [2] (setting [5]), in the data set with adult male Wistar rats [2] (setting [6]) and in the data set on adult male Wistar rats [2] (setting [7]) were “reduced cocaine self-administration”, “did not significantly affect” and “decrease cocaine self-administration”, respectively.

On to `COC(=O)[C@H]1[C@@H](OC(=O)c2ccccc2)C[C@@H]2CC[C@H]1N2C` [cocaine], for which the “effect on plasma concentrations of metyrapone or oxazepam” value in data set [3] (rats, presence of cocaine) was “did not affect the plasma concentrations of metyrapone or oxazepam”.

Turning to `CC(C)(C(=O)c1cccnc1)c1cccnc1` [metyrapone], the “change of half-lives at different doses or with repeated dosing” value in data set [4] is “did not change substantially”. The Tmax in data set [4] (Tmax) is 1.5 h. Further, the half-life in data set [4] is 2.04 h. Also, the “accumulation with repeated dosing” value in data set [4] is “Modest accumulation”. The “cue-induced reinstatement of extinguished cocaine seeking” value with adult male Wistar rats [1] (chronic, 50 mg/kg, ip, once per day for 14 days) is reported as “reduced cocaine seeking to levels seen when only saline was delivered”. Further, the “reinstatement of extinguished cocaine seeking” value with adult male Wistar rats [1] is “decrease”. The cocaine self-administration entry with adult male Wistar rats [2] (setting [5]) is given as “reduced cocaine self-administration”; with adult male Wistar rats [2] (setting [6]), “did not significantly affect”; in the data set on adult male Wistar rats [2] (setting [7]), “decrease cocaine self-administration”; in the data set with rats it was “significant dose-related decreases”. Besides, the “influence on plasma concentrations of each other” value in data set [3] (rat, in vivo, ip) is given as “did not influence plasma concentrations of each other”. Further, the immobility time entry with male Wistar rats (chronic, individual drug, Met50 group) was “showed a lessening of immobility time”. Also, in the data set on male Wistar rats (chronically treated groups, drug alone), the “group means of immobility versus vehicle (tolerance)” value is given as “equal to or exceeded the vehicle”.

Consider `O=C1Nc2ccc(Cl)cc2C(c2ccccc2)=NC1O` (centres unmarked) [oxazepam], for which the Tmax in data set [4] (human plasma, 270 mg Metyrapone/12 mg Oxazepam, Day 1, median, n 6, read-out: Tmax) was 3.5 h; in data set [4] (human plasma, 270 mg Metyrapone/12 mg Oxazepam, Day 10, median, n 6, read-out: Tmax) it was 3 h; in data set [4] (human plasma, 540 mg Metyrapone/24 mg Oxazepam, Day 1, median, n 6, read-out: Tmax), 3 h; in data set [4] (human plasma, 540 mg Metyrapone/24 mg Oxazepam, Day 10, median, n 6, read-out: Tmax), 3 h; in data set [4] (human plasma, 720 mg Metyrapone/24 mg Oxazepam, Day 1, median, n 6, read-out: Tmax) it was 4 h; in data set [4] (human plasma, 720 mg Metyrapone/24 mg Oxazepam, Day 10, median, n 6, read-out: Tmax) it was 3 h.

Regarding `CC(C)(c1cccnc1)C(O)c1cccnc1` (centres unmarked) [metyrapol], in data set [4], the “change of half-lives at different doses or with repeated dosing” value is recorded as “did not change substantially” and the half-life was 8.41 h. Besides, the Tmax in data set [4] (Tmax) amounted to 2 h.

`NCc1cc(=O)[nH]o1` [muscimol]: the cocaine self-administration entry in the data set on adult male Wistar rats [2] (setting [5]) is “reduced cocaine self-administration”; in the data set with adult male Wistar rats [2] (setting [6]), “did not significantly affect”.

As for `c1cnc2cc3c(cc2n1)[C@@H]1CNC[C@H]3C1` [varenicline], in the data set with smokers, the “one year quit rate” value is 22.5%.
